From publication PMC4207771, “Identification and Characterization of Novel Renal Sensory Receptors” (PLoS ONE, 2014)
Where two headings read alike, the source gives them in different places.

What was measured:
Olfr691 = biological target: T1, Olfr691 (Mus musculus, UniProt Q8VGW5); test: dual-luciferase (cAMP/CREB reporter) ligand screen, Olfr691 in HEK293T cells; format: cell-based; settings: for Olfr691 response (in words): luciferase assay, co-expressed with RTP1S
T1 construct: Lucy (N); expressed in transfected cells; host or cells: HEK293T, co-transfected with RTP1S
T1 sequence (Q8VGW5 1-322): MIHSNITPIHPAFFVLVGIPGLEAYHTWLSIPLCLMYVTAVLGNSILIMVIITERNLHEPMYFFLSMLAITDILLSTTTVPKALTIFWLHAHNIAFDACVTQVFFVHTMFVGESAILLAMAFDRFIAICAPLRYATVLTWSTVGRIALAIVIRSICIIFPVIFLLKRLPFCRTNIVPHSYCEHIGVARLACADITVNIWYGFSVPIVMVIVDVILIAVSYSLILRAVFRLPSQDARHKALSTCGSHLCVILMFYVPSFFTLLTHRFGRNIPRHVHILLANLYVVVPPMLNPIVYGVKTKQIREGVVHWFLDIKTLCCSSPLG

Olfr545 = test: dual-luciferase (cAMP/CREB reporter) ligand screen, Olfr545 in HEK293T cells; format: cell-based, mouse; design: key to Olfr545 response in dual-luciferase assay: ‘+’ or ‘–‘ in each column indicates if the olfactory receptor responded or had no effect to that specific chemical; -: ‘+’ or ‘–‘ in each column indicates if the olfactory receptor responded or had no effect to that specific chemical
Olfr99 = test: dual-luciferase (cAMP/CREB reporter) ligand screen, Olfr99 in HEK293T cells; format: cell-based, mouse; design: key: ‘+’ or ‘–‘ in each column indicates if the olfactory receptor responded or had no effect to that specific chemical; -: ‘+’ or ‘–‘ in each column indicates if the olfactory receptor responded or had no effect to that specific chemical
Olfr31 = biological target: T2, Olfr31 (Mus musculus, UniProt Q3KPA7); test: dual-luciferase (cAMP/CREB reporter) ligand screen, Olfr31 in HEK293T cells; format: cell-based
T2 construct: expressed in transfected cells; host or cells: HEK293T, co-transfected with RTP1S
T2 sequence (Q3KPA7 1-317): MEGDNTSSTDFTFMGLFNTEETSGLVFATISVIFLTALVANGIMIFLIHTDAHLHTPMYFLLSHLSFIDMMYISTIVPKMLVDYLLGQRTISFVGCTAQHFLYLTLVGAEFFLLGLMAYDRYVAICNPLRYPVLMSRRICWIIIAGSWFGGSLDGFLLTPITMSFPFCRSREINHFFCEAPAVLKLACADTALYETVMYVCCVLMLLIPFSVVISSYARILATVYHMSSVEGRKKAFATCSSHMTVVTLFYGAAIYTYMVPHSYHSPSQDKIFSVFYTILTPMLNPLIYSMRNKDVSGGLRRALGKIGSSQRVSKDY

Olfr693 = test: dual-luciferase (cAMP/CREB reporter) ligand screen, Olfr693 in HEK293T cells; format: cell-based, mouse; design: key: ‘+’ or ‘–‘ in each column indicates if the olfactory receptor responded or had no effect to that specific chemical; -: ‘+’ or ‘–‘ in each column indicates if the olfactory receptor responded or had no effect to that specific chemical
[1] = chemicals tested individually, screened at 500uM (* also at 100uM)

Row | Structure (SMILES) | Olfr691 response in dual-luciferase assay (Olfr691; [1]) | Olfr545 response in dual-luciferase assay (Olfr545; [1]) | Olfr99 response in dual-luciferase assay (Olfr99; [1]) | Olfr31 response in dual-luciferase assay (Olfr31; [1]) | Olfr693 response in dual-luciferase assay (Olfr693; [1]) | Relative response (% of 4-pentenoate response) at 500 µM (Olfr691; HEK-293T, 4 h, 0.5 mM ligand, normalized to the response of Olfr691 to the strongest ligand, 4-pentenoate) [%] | EC50 (Olfr691; Olfr691 co-expressed with RTP1S in HEK293T cells, 10 µM to 7.5 mM) [µM] | Olfr691 response (in words) (Olfr691; listed as 4-Pentenoate) | Olfr691 response (in words) (Olfr691; listed as 4-pentenoate) | Olfr691 response in dual-luciferase assay (Olfr691) | Olfr545 response in dual-luciferase assay (Olfr545) | Olfr99 response in dual-luciferase assay (Olfr99) | Olfr31 response in dual-luciferase assay (Olfr31) | Olfr693 response in dual-luciferase assay (Olfr693)
1 | Cc1ccco1 [2-methylfuran] | - | - | - | - | - |  |  |  |  |  |  |  |  | 
2 | CC(C)CCO [3-methyl-1-butanol] | - | - | - | - | - |  |  |  |  |  |  |  |  | 
3 | CCCCCC(=O)CC [3-octanone] | - | - | - | - | - |  |  |  |  |  |  |  |  | 
4 | C=CCCC(=O)O [4-pentenoic acid] | + | - | - | - | - | 100 ± 10.6 | 901 | induced the strongest response | induced the strongest cAMP responses at all doses |  |  |  |  | 
5 | CC(C)(C)C1CCC(O)CC1 (stereo not drawn) [4-tert-butylcyclohexanol] | - | - | - | - | - |  |  |  |  |  |  |  |  | 
6 | O=C1CCCCCCCCCCCCCCCO1 [16-hexadecanolide] | - | - | - | - | - |  |  |  |  |  |  |  |  | 
7 | C=C(C)[C@@H]1CC[C@@H](C)C(=O)C1 [(+)Dihydrocarvone] | - | - | - | - | - |  |  |  |  |  |  |  |  | 
8 | C=C[C@H](O)CCCCC [(R)-1-Octen-3-ol] | - | - | - | - | - |  |  |  |  |  |  |  |  | 
9 | CCCCCOC(=O)CCCCC [Amylhexanoate] | - | - | - | - | - |  |  |  |  |  |  |  |  | 
10 | COc1ccccc1 [Anisole] | - | - | - | - | - |  |  |  |  |  |  |  |  | 
11 | CC12CCC(CC1=O)C2(C)C (stereo not drawn) [Camphor] | - | - | - | - | - |  |  |  |  |  |  |  |  | 
12 | C=C(C)C1CC=C(C)C(=O)C1 (stereo not drawn) [Carvone] | - | - | - | - | - |  |  |  |  |  |  |  |  | 
13 | O=C(O)C1CCCCC1 [Cyclohexanecarboxylic acid] | - | - | - | - | - |  |  |  |  |  |  |  |  | 
14 | C[C@H](CCC(=O)O)[C@H]1CC[C@H]2[C@@H]3CC[C@@H]4C[C@H](O)CC[C@]4(C)[C@H]3C[C@H](O)[C@]12C [Deoxyxholic acid] | - | - | - | - | - |  |  |  |  |  |  |  |  | 
15 | CC(C)=CCC/C(C)=C/CO [Geraniol] | - | - | - | - | - |  |  |  |  |  |  |  |  | 
16 | CC(C)C=O [Isobutyraldehyde] | - | - | - | - | - |  |  |  |  |  |  |  |  | 
17 | C=CC(C)(CCC=C(C)C)OC(C)=O (stereo not drawn) [Linalyl acetate] | - | - | - | - | - |  |  |  |  |  |  |  |  | 
18 | CC(C)(O)CCCC1=CCC(C=O)CC1 (stereo not drawn) [Lyral] | - | - | - | - | - |  |  |  |  |  |  |  |  | 
19 | O=C(O)CC(=O)O [Malonate] | - | - | - | - | - |  |  |  |  |  |  |  |  | 
20 | O=C(O)C(=O)O [Oxalate] | - | - | - | - | - |  |  |  |  |  |  |  |  | 
21 | CC(=O)C=O [Pyruvaldehyde] | - | - | - | - | - |  |  |  |  |  |  |  |  | 
22 | [Na+].[Na+].[S-2] [Sodium Sulfide] |  |  |  |  |  |  |  |  |  | - | - | - | - | -
